Data from ChEMBL document CHEMBL5528039, “Discovery of a Macrocyclic Influenza Cap-Dependent Endonuclease Inhibitor” (J Med Chem, 2024).
The source made the active and inactive calls. The calls are words filed in the database; no cut-off is given here.

Columns and labels:
[1] = Prodrug conversion in Beagle dog assessed as (7aS,16R)-2,3-difluoro-10-hydroxy-8-methyl-16-phenyl-6,7,7a,8-tetrahydro-16H-benzo[b]pyrido[1',2':1,6][1,2,4]triazino[2,3-e][1,5]oxazocine-9,11-dione AUC (0 to last) at 1 mg/kg, po measured after 24 hrs by LC-MS/MS analysis; format: ADME, organism-based, Canis lupus familiaris; conditions: in vivo
Influenza A virus [2] = experiment: Antiviral activity against Influenza A virus A/PR/8/34 infected in BALB/c mouse assessed as reduction in body weight loss at 5 to 30 mg/kg, po pre-infected with virus for 48 hrs followed by twice daily compound administration starting from day 2 and measured on day 5; format: functional, organism-based; conditions: dose 5-30 mg/kg, time 72.0 hrs
[3] = (§1) Prodrug conversion in BALB/c mouse infected with Influenza B virus B/Lee/40 assessed as (7aS,16R)-2,3-difluoro-10-hydroxy-8-methyl-16-phenyl-6,7,7a,8-tetrahydro-16H-benzo[b]pyrido[1',2':1,6][1,2,4]triazino[2,3-e][1,5]oxazocine-9,11-dione formation at 0.5 to 5 mg/kg, po pre-infected with virus for 24 hrs followed by twice daily compound administration from day 1 to 7 and measured on day 14 by LC-MS/MS analysis; format: ADME, organism-based; conditions: in vivo, 336 h, dose 0.5-5 mg/kg, time 14 day
Influenza B virus [4] = experiment: Antiviral activity against Influenza B virus B/Lee/40 infected in BALB/c mouse assessed as reduction in body weight loss at 0.5 to 5 mg/kg, po pre-infected with virus for 24 hrs followed by twice daily compound administration from day 1 to 7 and measured on day 14; format: functional, organism-based; conditions: dose 0.5-5 mg/kg, time 14.0 day
[5] = Prodrug conversion in BALB/c mouse assessed as (7aS,16R)-2,3-difluoro-10-hydroxy-8-methyl-16-phenyl-6,7,7a,8-tetrahydro-16H-benzo[b]pyrido[1',2':1,6][1,2,4]triazino[2,3-e][1,5]oxazocine-9,11-dione Cmax at 10 mg/kg, po measured after 24 hrs by LC-MS/MS analysis; format: ADME, organism-based; conditions: in vivo
[6] = Prodrug conversion in BALB/c mouse assessed as (7aS,16R)-2,3-difluoro-10-hydroxy-8-methyl-16-phenyl-6,7,7a,8-tetrahydro-16H-benzo[b]pyrido[1',2':1,6][1,2,4]triazino[2,3-e][1,5]oxazocine-9,11-dione half-life at 10 mg/kg, po measured after 24 hrs by LC-MS/MS analysis; format: ADME, organism-based; conditions: in vivo
[7] = Prodrug conversion in cynomolgus monkey assessed as (7aS,16R)-2,3-difluoro-10-hydroxy-8-methyl-16-phenyl-6,7,7a,8-tetrahydro-16H-benzo[b]pyrido[1',2':1,6][1,2,4]triazino[2,3-e][1,5]oxazocine-9,11-dione Cmax at 1 mg/kg, po measured after 24 hrs by LC-MS/MS analysis; format: ADME, organism-based, Macaca fascicularis; conditions: in vivo
[8] = as §1, with “formation by measuring Ctau” for “formation”, “at” for “at 0.5 to”; format: ADME, organism-based; conditions: in vivo, 336 h, time 14 day
Influenza A virus [9] = experiment: Antiviral activity against Influenza A virus A/PR/8/34 infected in BALB/c mouse assessed as reduction in viral load in lungs at 5 to 30 mg/kg, po pre-infected with virus for 48 hrs followed by twice daily compound administration starting from day 2 and measured 1 hrs after last dose on day 5 by crystal violet staining based analysis; format: functional, organism-based; conditions: dose 5-30 mg/kg, time 73.0 hrs
[10] = Prodrug conversion in Beagle dog assessed as (7aS,16R)-2,3-difluoro-10-hydroxy-8-methyl-16-phenyl-6,7,7a,8-tetrahydro-16H-benzo[b]pyrido[1',2':1,6][1,2,4]triazino[2,3-e][1,5]oxazocine-9,11-dione half-life at 1 mg/kg, po measured after 24 hrs by LC-MS/MS analysis; format: ADME, organism-based, Canis lupus familiaris; conditions: in vivo
[11] = Prodrug conversion in cynomolgus monkey assessed as (7aS,16R)-2,3-difluoro-10-hydroxy-8-methyl-16-phenyl-6,7,7a,8-tetrahydro-16H-benzo[b]pyrido[1',2':1,6][1,2,4]triazino[2,3-e][1,5]oxazocine-9,11-dione AUC (0 to last) at 1 mg/kg, po measured after 24 hrs by LC-MS/MS analysis; format: ADME, organism-based, Macaca fascicularis; conditions: in vivo
[12] = Prodrug conversion in Beagle dog assessed as (7aS,16R)-2,3-difluoro-10-hydroxy-8-methyl-16-phenyl-6,7,7a,8-tetrahydro-16H-benzo[b]pyrido[1',2':1,6][1,2,4]triazino[2,3-e][1,5]oxazocine-9,11-dione Cmax at 1 mg/kg, po measured after 24 hrs by LC-MS/MS analysis; format: ADME, organism-based, Canis lupus familiaris; conditions: in vivo
[13] = Prodrug conversion in cynomolgus monkey assessed as (7aS,16R)-2,3-difluoro-10-hydroxy-8-methyl-16-phenyl-6,7,7a,8-tetrahydro-16H-benzo[b]pyrido[1',2':1,6][1,2,4]triazino[2,3-e][1,5]oxazocine-9,11-dione half-life at 1 mg/kg, po measured after 24 hrs by LC-MS/MS analysis; format: ADME, organism-based, Macaca fascicularis; conditions: in vivo
[14] = Prodrug conversion in BALB/c mouse assessed as (7aS,16R)-2,3-difluoro-10-hydroxy-8-methyl-16-phenyl-6,7,7a,8-tetrahydro-16H-benzo[b]pyrido[1',2':1,6][1,2,4]triazino[2,3-e][1,5]oxazocine-9,11-dione AUC (0 to last) at 10 mg/kg, po measured after 24 hrs by LC-MS/MS analysis; format: ADME, organism-based; conditions: in vivo
Influenza B virus [15] = experiment: Antiviral activity against Influenza B virus B/Lee/40 infected in BALB/c mouse assessed as reduction in improvement in survival rate at 0.5 to 5 mg/kg, po pre-infected with virus for 24 hrs followed by twice daily compound administration from day 1 to 7 and measured on day 14; format: functional, organism-based; conditions: dose 0.5-5 mg/kg, time 14.0 day

With `COC(=O)OCOc1c2n(ccc1=O)N1[C@H](c3ccccc3)c3cc(F)c(F)cc3OCC[C@H]1N(C)C2=O` the AUClast [1] was 0.724 µM·h, the Activity (Influenza A virus [2]) was “Active” and the Drug metabolism [3] was “Metabolite_Detected”. The Activity (Influenza B virus [4]) was “Active”, the Cmax [5] was 309 nM and the t1/2 [6] was 1.3 h. The Cmax [7] was 163 nM, the Ctau [8] was > 16 nM and the Activity (Influenza A virus [9]) was “Active”. The t1/2 [10] was 4.4 h, the AUClast [11] was 0.785 µM·h and the Cmax [12] was 171 nM. For the same compound, the t1/2 [13] was 3.6 h, the AUClast [14] was 0.93 µM·h and the Activity (Influenza B virus [15]) was “Active”.
